{"source": "patent US12692221B2", "about": "(priority 2024, dated 2026)", "test_system": "Balb/c mice sensitized to OVA", "experiment": "Airway hyperresponsiveness in OVA-induced murine allergic asthma, whole-body plethysmography with methacholine challenge", "format": "in vivo, mouse", "details": "0.5 mg/kg intraperitoneal + OVA, measured 48 hours after final OVA exposure", "method": "Methods: Experiments were conducted in accordance with the methods of Flanagan et al., ACS Pharmacol Transl Sci. 2020 Aug. 13; 4(2):488-502 with modifications. Briefly, Balb/c mice were sensitized to OVA via IP injection. Mice were then exposed repeatedly to aerosolized OVA to induce acute allergic airway inflammation. Airway responsiveness was assessed using non-invasive whole-body plethysmography (WBP) and methacholine challenge. Lung tissue was analyzed to quantify inflammation and mucus production.\nMice were separated into three experimental groups: 1) Naive mice were not exposed to OVA sensitization and challenge, 2) OVA mice were sensitized and challenged with the allergen OVA to induce allergic airway inflammation and hyperresponsiveness, and 3) 0.5 mg/kg exemplary compound+OVA. The exemplary compound was administered to mice via intraperitoneal injection. Respiratory parameters were measured 48 hours after the final OVA exposure. Airway responsiveness to methacholine was measured using noninvasive whole-body plethysmography (WBP) in unrestrained mice.\nBaseline PenH values were recorded for each experimental group, followed by exposure to aerosolized saline or increasing concentrations of methacholine, to assess the sensitivity and reactivity of airways due to its bronchoconstricting activity. PenH values were recorded, and data were analyzed using software. […]"}
{"smiles": "COCc1cc(CCN)c(OC)cc1CC(C)C", "note": "[Compound 2CiBu-5MM, 2-[4-isobutyl-2-methoxy-5-(methoxymethyl)phenyl]ethanamine]", "values": [{"measurement": "PenH response to methacholine (airway hyperresponsiveness)", "result": "reduced PenH values to levels representative of normal airway function"}]}
